Laboratory results as given in patent publication US20260109690A1, “HDAC6 INHIBITORS AND METHOD OF THEIR USE” (Baerenkraft Therapeutics, LLC., priority 2024, published 2026).

Key:
[1] = target: HDAC5 (Homo sapiens, UniProt Q9UQL6); assay: HDAC selectivity panel: HDAC5; type: biochemical
[2] = ALS mouse model: clinical signs & mortality; type: in vivo; conditions: G4 30 mg/kg (50 mg/kg from day 34) p.o. QD; SOD1-G93A mice
Method: Male mice and age-matched control mice were procured. All animals were quarantine for 7 days and acclimatized for one day prior to experiment initiation. During this period, the animals were observed daily for clinical signs.
Mice were weighed and randomized into different groups and age matched control groups were kept as such. Test compound I-8 was freshly formulated and administered to the respective animals of each group as per body weight. Animals in G1 and G2 were administered with vehicle. G3 and G4 group animals were dosed with compound I-8 at the dose of 15 mg/kg and 30 mg/kg respectively, per orally; Q.D. G4 animals were administered 30 mg/kg dose until day 34 and 50 mg/kg from day 35 onwards.
Cage-side observations were made to detect any changes and general activity of the animals. After dose administration, all the animals were observed carefully for treatment related clinical signs, including morbidity and mortality.

[3] = test system: B6SJL.SOD1-G93A transgenic mouse model of amyotrophic lateral sclerosis; assay: ALS mouse model: beam walk test; type: in vivo, mice
Excerpt: Beam walk test was used for the assessment of motor coordination or balance of animals. The beam apparatus consisted of 1-meter beams with a flat surface of 6 mm width resting 50 cm above the tabletop on two poles. Animals were placed at one end of the beam, allowed to traverse the beam and reach another end with a cage filled with the home cage bedding. Animals were trained on beams for 2 consecutive days, 3 trials per day with 30 s inter-trial interval. On day 3 (day of test), animals were tested on the beam. A total 3 trials were performed, and time taken to traverse the beam & number of slips were recorded, average data was analyzed. For animals unable to traverse the beam, a cutoff time of 60 s was assigned.
Note: Number of slips were recorded until week 12 due to disease progression after that.
Note: Behavioral tests were performed once in two weeks, i.e. at week 10, 12, 14 and 16.

[4] = test system: acetyl-α-tubulin in SH-SY5Y neuroblastoma cells; assay: ICC dose response of acetylated alpha-tubulin in SH-SY5Y neuroblastoma cells; type: cell-based; conditions: 24-hour treatment
Method: Cell Seeding: Seeded at 2,000 cells/well in 384-well plates 24-hours prior to compound treatment
Compound Treatment: 24-hour
HDAC6 inhibitor compounds tested (1 control and 6 experimental)
9-point dose-response curves for all compounds, starting at 30 μM with 3-fold serial dilutions
4 technical replicate wells per condition tested
Cells were seeded in 90 μL media. 10 μL of 10× compound solutions added to 90 μL media for 24-hours
Fixation: 4% PFA for 15 minutes (after removing all media and washing with DPBS+0.1% Tween-20)
Permeabilization: 0.1% Triton X-100 for 20 minutes
Primary antibody: acetyl-α-tubulin (Lys40/D20G3; Cell Signaling Technologies, #5335S) 1:1000 dilution in DPBS+5% goat serum+0.1% Tween-20, 1 hour at room temp on orbital shaker
Secondary antibody: Goat anti-Rabbit IgG (H+L) Highly Cross-Adsorbed Secondary Antibody, Alexa Fluor™ Plus 488, Catalog #A32731, 1:1000 dilution+Hoechst 33342, 1:10,000 dilution in DPBS+5% goat serum+0.1% Tween-20, 1 hour at room temp on orbital shaker
High-content imaging system: Image Xpress Micro Confocal from Molecular Devices […]
Integrated fluorescence intensity of acetyl-α-tubulin was calculated using an automated image-analysis algorithm in Meta Xpress software
Average intensity per cell was calculated by dividing the integrated fluorescence intensity by the number of nuclei. […]

[5] = target: HDAC1 (Homo sapiens, UniProt Q13547); assay: HDAC selectivity panel: HDAC1; type: biochemical
HDAC1, sequence (Q13547 whole entry, species assumed): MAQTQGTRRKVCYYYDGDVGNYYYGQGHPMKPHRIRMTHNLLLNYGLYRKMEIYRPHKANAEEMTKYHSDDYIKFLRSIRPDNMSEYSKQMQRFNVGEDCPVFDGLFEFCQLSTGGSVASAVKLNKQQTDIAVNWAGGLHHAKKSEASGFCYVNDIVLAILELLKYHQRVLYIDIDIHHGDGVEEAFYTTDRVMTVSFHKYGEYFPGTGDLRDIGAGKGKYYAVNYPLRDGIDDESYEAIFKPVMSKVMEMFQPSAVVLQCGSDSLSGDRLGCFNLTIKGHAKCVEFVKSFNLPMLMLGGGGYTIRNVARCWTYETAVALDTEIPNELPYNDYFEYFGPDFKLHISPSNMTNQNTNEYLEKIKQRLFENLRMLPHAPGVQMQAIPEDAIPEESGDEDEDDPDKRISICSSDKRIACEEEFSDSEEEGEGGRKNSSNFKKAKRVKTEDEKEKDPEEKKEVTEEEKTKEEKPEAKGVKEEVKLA

[6] = Tg2576 study: body weight; type: in vivo; conditions: G3 Tg2576 mice, 50 mg/kg (80 mg/kg from day 36) p.o., in g (unit assumed)
Method: Compound I-16 (free base; purity of 98.77%) was tested in a vehicle of PEG 400 (30%), Tween 80 (2%), and water (68%) at a concentration of […]. Dose formulations were prepared every day prior to dose administration. Oral dosages of 50 mg/kg were used unless otherwise indicated. 80 mg/kg doses were similarly prepared at a concentration of 8 mg/mL Male mice aged 6 months were used. 30 total animals were used with 10 animals in each group and 3 groups total. Groups were separated according to the following parameters.
Mice were weighed and randomized into groups. All the test formulations were freshly administered to respective animals of each group as per body weight. Basal behavior of the animals was recorded and analyzed in open field, Y-Maze, and EPM. Post basal behavior, animals were treated with compound I-16 for the duration of 3 months (i.e., from 6 months until 9 months). During the treatment duration, animals were subjected to different behavioral tests such as OFT, Y-maze, and EPM at 7, 8 and 9 months. At the end of experiments (i.e., at 9 months) animals were subjected to Morris water maze test.

HDAC5, sequence (Q9UQL6 whole entry, species assumed): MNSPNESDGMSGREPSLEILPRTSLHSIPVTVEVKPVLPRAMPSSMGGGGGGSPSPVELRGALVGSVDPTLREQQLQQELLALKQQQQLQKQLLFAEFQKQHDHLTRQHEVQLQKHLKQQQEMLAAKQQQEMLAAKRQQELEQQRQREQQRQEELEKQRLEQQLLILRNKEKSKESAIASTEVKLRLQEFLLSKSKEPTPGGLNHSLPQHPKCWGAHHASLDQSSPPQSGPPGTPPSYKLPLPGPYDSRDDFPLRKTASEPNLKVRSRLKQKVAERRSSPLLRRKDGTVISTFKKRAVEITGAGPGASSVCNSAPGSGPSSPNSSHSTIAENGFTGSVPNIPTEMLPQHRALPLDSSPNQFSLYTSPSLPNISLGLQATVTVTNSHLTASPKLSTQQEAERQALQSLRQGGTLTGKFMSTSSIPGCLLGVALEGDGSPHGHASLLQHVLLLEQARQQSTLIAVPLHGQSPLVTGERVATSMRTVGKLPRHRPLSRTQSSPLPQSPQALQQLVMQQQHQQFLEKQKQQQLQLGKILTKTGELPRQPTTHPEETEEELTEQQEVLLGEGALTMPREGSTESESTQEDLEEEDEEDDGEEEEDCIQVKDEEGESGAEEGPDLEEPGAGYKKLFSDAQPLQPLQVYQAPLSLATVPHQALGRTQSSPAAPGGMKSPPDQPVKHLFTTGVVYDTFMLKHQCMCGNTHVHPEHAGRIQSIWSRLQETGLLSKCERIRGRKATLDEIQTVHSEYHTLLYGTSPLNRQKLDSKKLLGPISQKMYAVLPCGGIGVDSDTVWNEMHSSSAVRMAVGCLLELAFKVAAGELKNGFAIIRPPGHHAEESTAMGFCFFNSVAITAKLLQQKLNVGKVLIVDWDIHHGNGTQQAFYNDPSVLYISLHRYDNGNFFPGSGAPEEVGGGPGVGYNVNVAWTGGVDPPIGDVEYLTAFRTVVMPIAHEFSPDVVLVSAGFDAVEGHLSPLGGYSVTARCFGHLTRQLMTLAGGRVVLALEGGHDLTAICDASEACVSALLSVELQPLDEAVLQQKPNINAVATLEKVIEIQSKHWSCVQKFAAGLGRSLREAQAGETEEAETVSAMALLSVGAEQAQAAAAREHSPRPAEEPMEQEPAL

With `CC1CN(Cc2ccc(Nc3nccc(-c4ccc(C(=O)NO)cc4)n3)cc2F)CCO1` (racemic) [Compound I-8, 4-(2-((3-fluoro-4-((2-methylmorpholino)methyl)phenyl)amino)pyrimidin-4-yl)-N-hydroxybenzamide] as the compound, how does the IC50 [1] read?
Its IC50 is 7.77 µM.

What about the mortality [2] of the same compound?
The mortality was “two mortalities”.

And the “Beam Walk Test- Latency to traverse the beam” value (from here on “Beam Walk Test- Latency”) ([3]; G3 15 mg/kg p.o. QD, Week 10)?
Its value is 21.37 ± 5.99 s.

What about the “Beam Walk Test: Number of Slips” value ([3]; G3 15 mg/kg p.o. QD, Week 10) of the same compound?
Its value is 1.42 ± 0.14.

What about the “Beam Walk Test- Latency” value ([3]; G3 15 mg/kg p.o. QD, Week 12) of the same compound?
Its value is 25.96 ± 5.59 s.

What about the “Beam Walk Test: Number of Slips” value ([3]; G3 15 mg/kg p.o. QD, Week 12) of the same compound?
The value was 0.93 ± 0.19.

What about the “Beam Walk Test- Latency” value ([3]; G3 15 mg/kg p.o. QD, Week 14) of the same compound?
The value was 20.52 ± 6.85 s.

And the “Beam Walk Test- Latency” value ([3]; G3 15 mg/kg p.o. QD, Week 16)?
The value was 58.21 ± 1.79 s.

And the “Beam Walk Test- Latency” value ([3]; G4 30 mg/kg (50 mg/kg from day 34) p.o. QD, Week 10)?
The value was 17.04 ± 5.71 s.

And the “Beam Walk Test- Latency” value ([3]; G4 30 mg/kg (50 mg/kg from day 34) p.o. QD, Week 12)?
Its value is 29.83 ± 6.82 s.

And the “Beam Walk Test- Latency” value ([3]; G4 30 mg/kg (50 mg/kg from day 34) p.o. QD, Week 14)?
Its value is 25.29 ± 7.64 s.

What about the “Beam Walk Test- Latency” value ([3]; G4 30 mg/kg (50 mg/kg from day 34) p.o. QD, Week 16, cutoff time 60 s) of the same compound?
The value was 60 ± 0 s.

And the “Beam Walk Test: Number of Slips” value ([3]; G4 30 mg/kg p.o. QD, Week 10)?
The value was 1.33 ± 0.40.

What about the “Beam Walk Test: Number of Slips” value ([3]; G4 30 mg/kg p.o. QD, Week 12) of the same compound?
Its value is 1.38 ± 0.34.

What about the “latency to traverse the beam vs. G2” value ([3]; G4, week 10) of the same compound?
Its value is “significant reduction in latency to traverse the beam”.

And the “motor balance compared to G2, disease control group” value ([3]; G4, week 10)?
Its value is “significant improvement was observed in motor balance”.

And the “increase in acetyl-α-tubulin (ICC)” value [4]?
Its value is “induce acetylation of α-tubulin in SH-SY5Y neuroblastoma cells in a dose-dependent manner”.

What about the IC50 [5] of the same compound?
Its IC50 is 1.18 µM.

With `C[C@@H]1CN(Cc2ccc(Nc3nccc(-c4ccc(C(=O)NO)cc4)n3)cc2F)CCO1` [Compound I-16, (R)-4-(2-((3-fluoro-4-((2-methylmorpholino)methyl)phenyl)amino)pyrimidin-4-yl)-N-hydroxybenzamide] as the compound, how does the Body weight ([6]; Day 0) read?
The Body weight was 28.08 ± 0.84.

What about the Body weight ([6]; Day 4) of the same compound?
The Body weight was 27.31 ± 0.52.

What about the Body weight ([6]; Day 7) of the same compound?
Its Body weight is 26.85 ± 0.66.

What about the Body weight ([6]; Day 14) of the same compound?
Its Body weight is 28.27 ± 0.87.

What about the Body weight ([6]; Day 21) of the same compound?
Its Body weight is 27.65 ± 0.86.

What about the Body weight ([6]; Day 28) of the same compound?
The Body weight was 28.23 ± 1.02.

And the Body weight ([6]; Day 35)?
The Body weight was 28.88 ± 0.55.

What about the Body weight ([6]; Day 42) of the same compound?
Its Body weight is 28.35 ± 0.63.

And the Body weight ([6]; Day 49)?
Its Body weight is 28.76 ± 0.76.

What about the Body weight ([6]; Day 56) of the same compound?
The Body weight was 27.77 ± 0.67.

And the Body weight ([6]; Day 63)?
The Body weight was 28.72 ± 1.03.

What about the Body weight ([6]; Day 70) of the same compound?
The Body weight was 29.54 ± 0.72.

What about the Body weight ([6]; Day 77) of the same compound?
The Body weight was 29.16 ± 0.71.

What about the Body weight ([6]; Day 84) of the same compound?
Its Body weight is 29.14 ± 0.86.

And the Body weight ([6]; Day 91)?
The Body weight was 29.41 ± 0.78.
